Key:
[1] = tested on: BEAS-2B cells; assay: MTT assay in non-tumorigenic bronchial epithelial cells (selectivity); assay type: cell-based; conditions: Homo sapiens, 24 h, read-out: BEAS-2B IC50 ± SD
Description: NSCLCs H292 and H460 were treated with various concentrations of derivatives of the RT right-half analog for 24 h. […] However, the IC50 values for DH_17, DH_20, DH_23, and DH_26 in H460 cells were greater than 100 μM. TM-(−)-18 was identified as a potent compound in a previous study. The structure of TM-(−)-18 was present in Figure 1A. […] To assess the selectivity of DH_28, DH_30, DH_31, and TM-(−)-18 in lung cancer cells, non-tumorigenic epithelial cell lines derived from human bronchial epithelial cells (BEAS-2B) were treated with DH_28, DH_30, DH_31, and TM-(−)-18 at various concentrations for 24 h.
Figure 2 The effect of RT right-half analogs on cytotoxicity in NSCLC and human normal lung epithelial (BEAS-2B) cell lines and apoptotic cell death in NSCLC cells. (A) NSCLC H292 and H460 cells were treated with derivatives of RT right-half analogs for 24 h and analyzed using MTT assay to assess cytotoxicity. (B) IC50 values for H292 and H460 cell lines were calculated. (C) BEAS-2B cells were treated with DH_28, DH_30, DH_31, and TM-(−)-18 for 24 h. The cytotoxic effects were evaluated using an MTT assay, and the IC50 values for BEAS-2B cells were determined. (D) H292 and H460 cells were seeded and treated with 0–10 μM of DH_28, DH_30, and DH_31 for 24 h. Hoechst 33342 and PI were used to stain the cell nuclei. Images were obtained under a fluorescence microscope. (E) The percentages of cell death were calculated based on the stained images in H292 and H460 cells. […] TEXT PRINTED IN THE PICTURE: (B) DH_17: IC50 ± SD (μM) H292: 20.50 ± 3.69; IC50 ± SD (μM) H460: > 100 | (B) DH_20: IC50 ± SD (μM) H292: 21.46 ± 3.77; IC50 ± SD (μM) H460: > 100 | (B) DH_23: IC50 ± SD (μM) H292: 17.50 ± 3.08; IC50 ± SD (μM) H460: > 100 | (B) DH_26: IC50 ± SD (μM) H292: 7.18 ± 2.39; IC50 ± SD (μM) H460: > 100 | (B) DH_28: IC50 ± SD (μM) H292: 9.56 ± 1.87; IC50 ± SD (μM) H460: 11.48 ± 1.87 | (B) DH_30: IC50 ± SD (μM) H292: 7.80 ± 2.30; IC50 ± SD (μM) H460: 4.51 ± 0.78 | (B) DH_31: IC50 ± SD (μM) H292: 5.54 ± 1.04; IC50 ± SD (μM) H460: 2.90 ± 0.58 | (B) TM-(–)-18: IC50 ± SD (μM) H292: > 100; IC50 ± SD (μM) H460: 7.89 ± 1.27 | (C) DH_28: BEAS-2B IC50 ± SD (μM): 16.46 ± 2.11 | (C) DH_30: BEAS-2B IC50 ± SD (μM): 5.50 ± 1.70 | (C) DH_31: BEAS-2B IC50 ± SD (μM): 6.51 ± 1.40 | (C) TM-(–)-18: BEAS-2B IC50 ± SD (μM): 7.25 ± 1.25 DOUBTS OF THE COPYIST ABOUT THIS PICTURE: Panel C, DH_28, IC50: small print, 16.46 ± 2.11 is the best reading; 6 could be 8 / Panel C, DH_30, IC50: small print, 5.50 ± 1.70 is the best reading; 5 could be 6 / Panel C, DH_31, IC50: small print, 6.51 ± 1.40 is the best reading; 6 could be 8 or 5 / Panel C, TM-(–)-18, IC50: small print, 7.25 ± 1.25 is the best reading

[2] = target: T1, STAT3 (Homo sapiens, UniProt P40763); assay: STAT3 proteasomal degradation, Western blot with or without MG132; assay type: cell-based; conditions: H460, 1 and 2.5 µM, 6 h, without MG132 (p < 0.05)
T1 construct: endogenous in cells; host or cells: NCI-H460 (ATCC HTB-177)
T1 sequence (P40763 whole entry): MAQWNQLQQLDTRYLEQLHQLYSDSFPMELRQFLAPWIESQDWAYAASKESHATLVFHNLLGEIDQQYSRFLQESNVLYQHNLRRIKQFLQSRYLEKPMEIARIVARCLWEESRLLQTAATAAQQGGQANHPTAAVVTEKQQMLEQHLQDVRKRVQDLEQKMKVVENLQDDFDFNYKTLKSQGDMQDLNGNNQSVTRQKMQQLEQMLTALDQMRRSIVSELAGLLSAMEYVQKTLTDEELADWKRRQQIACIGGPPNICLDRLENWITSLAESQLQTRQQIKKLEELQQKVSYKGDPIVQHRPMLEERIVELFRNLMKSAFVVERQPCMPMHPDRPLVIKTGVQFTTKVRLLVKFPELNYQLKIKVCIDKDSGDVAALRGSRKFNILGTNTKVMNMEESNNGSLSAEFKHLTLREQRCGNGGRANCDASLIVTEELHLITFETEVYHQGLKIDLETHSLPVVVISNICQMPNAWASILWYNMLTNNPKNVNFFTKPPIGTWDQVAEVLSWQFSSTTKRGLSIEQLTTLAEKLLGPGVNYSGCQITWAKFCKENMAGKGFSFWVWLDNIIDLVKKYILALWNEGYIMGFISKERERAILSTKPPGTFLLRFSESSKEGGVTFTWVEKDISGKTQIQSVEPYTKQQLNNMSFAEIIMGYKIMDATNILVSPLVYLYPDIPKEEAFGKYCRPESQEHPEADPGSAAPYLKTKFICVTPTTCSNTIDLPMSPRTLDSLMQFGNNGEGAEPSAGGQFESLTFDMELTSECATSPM
Description: To explore whether the reduction in total STAT3 protein after DH_31 treatments (as shown in Figure 5B–E) occurs at the mRNA or protein levels, we first investigated mRNA levels using Real-time qPCR. […] To evaluate whether DH_31 affects STAT3 stability, pretreatment with MG132, a potent selective proteasome inhibitor, was performed. H460 cells were pretreated with or without MG132 (10 μM) for 1 h and then cells were either treated with DH_31 for 6 h or left untreated. […] The proteasome can recognize and degrade protein targets that are conjugated by single or poly-ubiquitin molecules. To investigate the ubiquitination level of STAT3 with DH_31 treatments, the ubiquitination level was evaluated using immunoprecipitation and Western blot analysis of the STAT3–ubiquitin complex in the lung cancer cells treated with DH_31 and in untreated cells.
Immunoprecipitation assay was performed to investigate ubiquitin–proteasomal degradation, shedding light on the regulatory mechanisms involved. H460 cells (4.0 × 10^5 cells per well) were seeded in 6-well plates. Following overnight incubation, the cells were pretreated with 10 μM of a proteasome inhibitor, MG132, for 1 h to prevent proteasomal degradation, and then were treated with different concentrations of DH_31 (0–2.5 μM) for 6 h. After treatment, the cells were lysed as described above. Immunoprecipitation was carried out using the Dynabeads™ Protein G Immunoprecipitation kit, following the manufacturers’ protocols. The magnetic beads were coated with the rabbit anti-STAT3, then incubated with whole-cell lysate and mixed gently overnight at 4 °C. After washing, the supernatant containing the antibody–antigen complex was used to perform Western blot analysis to detect the ubiquitinated STAT3 protein.

COc1c(C)cc2c(c1O)[C@@H]1CN(Cc3ccc4ccccc4c3)[C@@H](C#N)[C@H](C2)N1C [DH_31, (1R,4R,5S)-10-hydroxy-9-methoxy-8,11-dimethyl-3-(naphthalen-2-ylmethyl)-1,2,3,4,5,6-hexahydro-1,5-epiminobenzo[d]azocine-4-carbonitrile]
IC50 [1]: 6.51 ± 1.4 µM | STAT3 protein levels (Western blot) [2]: significantly reduced

— article PMC11355573, “A New Renieramycin T Right-Half Analog as a Small Molecule Degrader of STAT3” (Marine Drugs, 2024)
